Measurements: US11713318B2, “Short conjugated oligoelectrolytes and uses thereof” (The Regents Of The University Of California, priority 2018, dated 2023)
Where two headings read alike, the source gives them in different places.

Experiments:
[1] = test system: P. aeruginosa CDC0248 (MDR); assay: MIC against resistant strains, Tables 5a-5d; assay type: cell-based; details: Pseudomonas aeruginosa, n = 3
Experimental: (§1) Compounds described herein were evaluated for growth inhibition against a variety of bacterial species, including strains that have developed resistance to common antibacterial treatments, according to the procedure described herein, or by analogous procedures known to those skilled in the art. Resistant bacterial strains used for compound testing include methicillin-resistant S. aureus (MRSA), vancomycin resistant Enterococci (VRE) and various multi-drug resistant (MDR) strains commonly associated with hospital-acquired (nosocomial) infections, including, but not limited to A. baumannii, K. pnuemoniae, and E. cloacae.

[2] = test system: A. baumannii 1674627 (MDR); assay: MIC against resistant strains, Tables 5a-5d; assay type: cell-based; details: Acinetobacter baumannii, n = 3
Experimental: as §1

E. coli ATCC25922 (WT) = assay: MIC against resistant strains, Tables 5a-5d; assay type: cell-based; details: Escherichia coli, n = 3
Experimental: as §1

E. faecium 1674620 (VRE) = assay: MIC against resistant strains, Tables 5a-5d; assay type: cell-based; details: Enterococcus faecium, n = 3
Experimental: as §1

[3] = test system: S. aureus ATCC BAA-1717 (MRSA); assay: MIC against resistant strains, Tables 5a-5d; assay type: cell-based; details: Staphylococcus aureus, n = 3
Experimental: as §1

[4] = test system: E. cloacae 1744299 (ESBL); assay: MIC against resistant strains, Tables 5a-5d; assay type: cell-based; details: Enterobacter cloacae, n = 3
Experimental: as §1

[5] = test system: S. aureus ATCC 33591 (MRSA); assay: MIC against resistant strains, Tables 5a-5d; assay type: cell-based; details: Staphylococcus aureus, n = 3
Experimental: as §1

[6] = test system: A. baumannii CDC0290 (MDR); assay: MIC against resistant strains, Tables 5a-5d; assay type: cell-based; details: Acinetobacter baumannii, n = 3
Experimental: as §1

[7] = test system: K. pneumoniae ATCC BAA-2473 (MDR); assay: MIC against resistant strains, Tables 5a-5d; assay type: cell-based; details: Klebsiella pneumoniae, ATCCBAA2473, n = 3
Experimental: as §1

[8] = test system: K. pneumoniae CDC0010 (MDR); assay: MIC against resistant strains, Tables 5a-5d; assay type: cell-based; details: Klebsiella pneumoniae, n = 3
Experimental: as §1

[9] = test system: P. aeruginosa 1674623 (MDR); assay: MIC against resistant strains, Tables 5a-5d; assay type: cell-based; details: Pseudomonas aeruginosa, n = 3
Experimental: as §1

E. coli K12 (ATCC 47076) = assay: MIC broth microdilution method, Table 3; details: Escherichia coli, ATCC47076
[10] = test system: Hep G2 (ATCC HB-8065) cells; assay: Cytotoxicity, MTT assay; assay type: cell-based; details: Hep G2, MTT, 24 hours incubation
Experimental: (§2) Before removing the frozen cell stocks from liquid nitrogen, culture medium was pre-warmed to 37° C. The frozen tube was then removed from liquid nitrogen and placed into a 37° C. water bath and shaken gently to thaw the cell stock as quickly as possible. A small portion of the pre-warmed culture medium was added to the cell solution. The cell suspension was then centrifuged at 1000 r/min for 3 minutes. The supernatant was discarded and the cells were resuspended in fresh culture medium.
(§3) NIH 3T3 (ATCC CRL-1658) and Hep G2 (ATCC HB-8065) cells were cultured with DMEM+10% FBS in 100 mm dishes. Cells were lifted for subculture or testing when confluence reached ˜60% by treating with 1× trypsin (incubated for 3 min at 37° C.). J774 (ATCC TIB-67) cells were cultured with DMEM+10% FBS in 100 mm dishes. Cells were lifted for subculture or testing when confluence reached ˜80% using a cell scraper. RAW264.7 (ATCC TIB-71) cells were cultured with DMEM+10% heat-inactivated FBS+1% pen/strep in T75 flasks. Cells were lifted for subculture or testing when confluence reached ˜80% using a cell scraper.
(§4) • 1. Cells were lifted and resuspended in culture medium. The number of cells in the cell suspension was determined using an auto-cell counter: 10 μL of the cell suspension was mixed with 10 μL 1× trypan blue (filtered with 0.2 μm PES filter) and the mixture was loaded onto a cell counting slide. Based on the concentration of viable cells, the cell suspension was further diluted to achieve the desired density. • 2. Cells were seeded in 96 well plates by adding 100 μL final cell suspension column-by-column using a multichannel pipette (5000 cells/well for NIH 3T3, 10000 cells/well for Hep G2, J774 and RAW264.7). The outer wells were block with PBS to reduce the effects of evaporation. One column was filled with only culture medium as a blank. Cells were incubated overnight before adding the test articles. • 3. Test articles were dissolved in 1×PBS (or DMSO) to obtain stocks solution. Stock solutions were pre-warmed before use. […] Serial dilutions (2-fold) of the 10× solutions were made in sterile culture tubes by diluting in 1×PBS (8 dilutions to yield 9 test concentrations). 900 μL of culture media was added to each tube to obtain final drug solution containing 10% PBS (or less than 1% DMSO) for each experimental group. • 4. The original culture medium was gently removed from the 96-well plates using a pipette. 100 μL of the test article solutions prepared in Step 3 were added to rows 2-7 of each column to obtain six replicates for each concentration. Plates were then incubated for 24 hours. • 5. MTT solutions were prepared by dissolving commercial MTT powder in 1×PBS to a concentration of 5 mg/mL. After passing through a 0.22 μm PES filter, the MTT solution was divided into 1 mL portions in sterile centrifuge tubes and stored at −20° C. • 6. MTT stock solutions were removed from the freezer to thaw at room temperature. Before adding MTT solutions, cell cultures were visually inspected and imaged using a microscope (to use as a comparison with MTT results). 10 μL of the 5 mg/mL MTT solution was added to each well and the plate was incubated for 4 hours. • 7. After 4 h incubation, the culture medium/MT solution was removed gently using a pipette. 100 μL of DMSO was added to each well using a multichannel pipette. The 96-well plates were analyzed in a plate reader using the following method: shake for 5 minutes, wait for 30 seconds, and measure absorbance at 570 nm. • 8. Data processing: The average of background Abg was calculated from the blank column. All other data was first treated by subtracting Abg. The average A. and standard deviation Se of each experimental group and the average Ac and standard deviation Sc for control group (with pure culture medium incubation) were then calculated. The cell viability was determined as Ae/Ac×100% and corresponding error as Se/Ae×100%. Significant outliers in any experimental or control group were removed. […]

Cytotoxicity, MTT assay = assay type: cell-based; details: human, Hep G2 (ATCC HB-8065) cells, Hep G2
Experimental: as §2, §3, §4

[11] = Solubility in aqueous media; assay type: physicochemical; details: reason why efficacy could not be detected
[12] = test system: primary human hepatocytes; assay: Cytotoxicity tested by Eurofins Pharma Discovery Services; assay type: cell-based; details: Hepatocyte, data provided by Eurofins, read-out: IC50
[13] = test system: K. aerogenes (ATCC 13048); assay: MIC broth microdilution method, Table 3; details: Klebsiella aerogenes, ATCC13048
HRPTEpiC = assay: Cytotoxicity tested by Eurofins Pharma Discovery Services; assay type: cell-based; details: data provided by Eurofins, read-out: IC50
[14] = test system: S. epidermidis (ATCC 14990); assay: MIC broth microdilution method, Table 3; details: Staphylococcus epidermidis, ATCC14990
[15] = test system: NIH 3T3 (ATCC CRL-1658) cells; assay: Cytotoxicity, MTT assay; assay type: cell-based; details: Mus musculus, NIH3T3; NIH 3T3; MTT, 24 hours incubation; read-out: IC50
Experimental: as §2, §3, §4

J774 (ATCC TIB-67) cells = assay: Cytotoxicity, MTT assay; assay type: cell-based; details: Mus musculus, MTT, 24 hours incubation, read-out: IC50
Experimental: as §2, §3, §4

Hep G2 cells = assay: Cytotoxicity tested by Eurofins Pharma Discovery Services; assay type: cell-based; details: Homo sapiens, HepG2; Hep G2; data provided by Eurofins; read-out: IC50
[16] = Homo sapiens, HepG2, 24 h, read-out: IC50

Structure (SMILES): CCCCCC[N+](C)(C)CCCOc1cc(/C=C/c2ccc(/C=C/c3cc(OCCC[N+](C)(C)CCCCCC)cc(OCCC[N+](C)(C)CCCCCC)c3)cc2)cc(OCCC[N+](C)(C)CCCCCC)c1 [Formula BB]
- MIC [1]: 32 µg/mL
- MIC [2]: 2 µg/mL
- MIC (E. coli ATCC25922 (WT)): 2 µg/mL
- MIC (E. faecium 1674620 (VRE)): 0.25 µg/mL
- MIC [3]: 1 µg/mL
- MIC [4]: 2 µg/mL
- MIC [5]: 2 µg/mL
- MIC [6]: 2 µg/mL
- MIC [7]: 2 µg/mL
- MIC [8]: 2 µg/mL
- MIC [9]: 16 µg/mL
- MIC (E. coli K12 (ATCC 47076)): 8 µg/mL
- IC50 [10]: 15.1 µg/mL
- IC50 [10, 16]: 15 µg/mL
- viability at 24 h (Cytotoxicity, MTT assay; at concentrations efficacious against bacterial species (0.25-4 μg/mL), read-out: cell viability): ~90%

Structure (SMILES): CC(C)(C)c1cc[n+](CCCCCCOc2cc(/C=C/c3cc(OCCCCCC[n+]4ccc(C(C)(C)C)cc4)cc(OCCCCCC[n+]4ccc(C(C)(C)C)cc4)c3)cc(OCCCCCC[n+]3ccc(C(C)(C)C)cc3)c2)cc1.[I-].[I-].[I-].[I-] [Formula D]
- solubility [11]: low solubility
- IC50 [10, 16]: 20.7 µg/mL

Structure (SMILES): CCCCCC[N+](C)(C)CCCCOc1cc(/C=C/c2ccc(/C=C/c3cc(OCCCC[N+](C)(C)CCCCCC)cc(OCCCC[N+](C)(C)CCCCCC)c3)cc2)cc(OCCCC[N+](C)(C)CCCCCC)c1.[I-].[I-].[I-].[I-] [Formula T]
- IC50 [12]: 31.8 µg/mL
- MIC [1]: 32 µg/mL
- MIC [2]: 2 µg/mL
- MIC (E. coli ATCC25922 (WT)): 2 µg/mL
- MIC (E. faecium 1674620 (VRE)): 0.25 µg/mL
- MIC [3]: 1 µg/mL
- MIC [4]: 2 µg/mL
- MIC [5]: 0.5 µg/mL
- MIC [6]: 4 µg/mL
- MIC [7]: 4 µg/mL
- MIC [8]: 4 µg/mL
- MIC [9]: 16 µg/mL
- MIC [13]: 8 µg/mL
- MIC (E. coli K12 (ATCC 47076)): 4 µg/mL
- IC50 (HRPTEpiC): 2.8 µg/mL
- MIC [14]: 1 µg/mL
- IC50 [10, 16]: 15.3 µg/mL
- IC50 [15]: 12.4 µg/mL
- IC50 (J774 (ATCC TIB-67) cells): 4.6 µg/mL
- IC50 (Hep G2 cells): 11.6 µg/mL

Structure (SMILES): CCCCC[N+](C)(C)CCCCOc1cc(/C=C/c2ccc(/C=C/c3cc(OCCCC[N+](C)(C)CCCCC)cc(OCCCC[N+](C)(C)CCCCC)c3)cc2)cc(OCCCC[N+](C)(C)CCCCC)c1 [Formula S]
- MIC [13]: 8 µg/mL
- MIC (E. coli K12 (ATCC 47076)): 4 µg/mL
- MIC [14]: 2 µg/mL
- IC50 [10, 16]: > 128 µg/mL
- IC50 [15]: 42.3 µg/mL
- IC50 (J774 (ATCC TIB-67) cells): 22.6 µg/mL
- viability at 24 h (Cytotoxicity, MTT assay; at the concentration given as IC50 bound, read-out: cell viability at the highest or lowest test concentration): 52%
